This passage reports IC50 results from US12129265B2, “Therapeutic agents and uses thereof” (Ankh Life Sciences Limited, priority 2020, dated 2024).

The structures appear in SMILES notation. Like-named read-outs stand apart in the source and are kept apart here.

What all share (assay): CellTiter-Glo in vitro cell proliferation assay, Example 8
Holding throughout (format): cell-based, Human

One experiment relates to HEC-1a cells. The note with it: Endometrial, read-out: Mean IC50. In a few lines: (§1)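 Cells plated in 384-well plates, incubated 24 h at 37 °C, then dosed with compound in DMSO at 0.0075–100 μM (DMSO-only controls) for 72 h. Proliferation read as luminescence after 60 min room-temperature incubation with 1:1 water:CellTiter-Glo.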
In another experiment the test system is FaDu cells. The note with it: H&N - SC, read-out: Mean IC50. The method, boiled down: as §1
The subject of a further experiment is H1650 (EGFR mut) cells. The note with it: read-out: Mean IC50. The method, boiled down:
as §1

The subject of a further experiment is A2780CP cells. The note with it: Ovarian, read-out: Mean IC50. The method, boiled down:
as §1

The next experiment has as its system BxPC-3 cells. The note with it: BxPC-3, Pancreatic, read-out: Mean IC50. The method, boiled down: as §1
The next experiment deals with JIM1 cells. The note with it: JIM1, HMCL, read-out: Mean IC50. The method, boiled down:
as §1

In a further experiment the test system is SiHA cells. The note with it: Cervical - SC, read-out: Mean IC50. In a few lines: as §1
For another experiment, the system named is KMM-1 cells. The note with it: KMM-1, HMCL-A, read-out: Mean IC50. In a few lines:
as §1

The test system of another experiment is MIA PaCa-2 cells. The note with it: MIA PaCa-2, Pancreatic, read-out: Mean IC50. In a few lines:
as §1

In a further experiment the test system is ASPC-1 cells. The note with it: ASPC-1, Pancreatic, read-out: Mean IC50. In a few lines: as §1
Another experiment deals with OCI-LY3 cells. The note with it: OCI-LY3, ABC-DLBCL, read-out: Mean IC50. The method, boiled down:
as §1

The next experiment has as its system DOHH-2 cells. The note with it: DoHH-2, GCB-DLBCL, read-out: Mean IC50. The method, boiled down:
as §1

Another experiment deals with A498 cells. The note with it: A498, RCC, read-out: Mean IC50. In a few lines: as §1
The next experiment deals with MDA-MB-231 cells. The note with it: MDA-MB-231, TNBC, read-out: Mean IC50. In a few lines: as §1
Another experiment relates to H1975 (EGFR mut) cells. The note with it: read-out: Mean IC50. In a few lines: as §1
A further experiment relates to AN3CA cells. The note with it: Endometrial, read-out: Mean IC50. In a few lines:
as §1

A further experiment deals with KMS-34 cells. The note with it: KMS-34, HMCL-B, read-out: Mean IC50. In a few lines: as §1
A further experiment concerns L363 cells. The note with it: L363, PCL/MM, read-out: Mean IC50. In a few lines:
as §1

A further experiment relates to MDA-MB-468 cells. The note with it: MDA-MB-468, TNBC, read-out: Mean IC50. In a few lines:
as §1

A further experiment concerns A2780 cells. The note with it: A2780, Ovarian, read-out: Mean IC50. The method, boiled down:
as §1

The subject of a further experiment is HCC70 cells. The note with it: HCC70, TNBC, read-out: Mean IC50. In a few lines: as §1
The test system of a further experiment is MOLP-8 cells. The note with it: MOLP-8, MM IgD, read-out: Mean IC50. The method, boiled down: as §1
In a further experiment the test system is RPMI-8226 cells. The note with it: RPMI-8226, HMM. In a few lines:
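After 24 h plating, cells exposed to compound in DMSO over 0.0075–100 µM for 72 h at 37 °C. Viability read by CellTiter-Glo luminescence after 60 min at room temperature, relative to DMSO controls.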

For orientation: IC50 means the point on the concentration scale where inhibition reaches its midpoint.

For `COc1ccc2c3c([nH]c2c1)C(CC(CC1=NCCc2c1[nH]c1cc(OC)ccc21)c1cccc(F)c1)=NCC3` [compound 20], the IC50 in the experiment with HEC-1a cells was 11 µM; with FaDu cells, 4.05 µM; with H1650 (EGFR mut) cells (NSCLC), 4.44 µM; with A2780CP cells it was 5.06 µM; with BxPC-3 cells it was 2.25 µM; with JIM1 cells, 4.28 µM. Also, the IC50 amounted to 6.73 µM with SiHA cells; 3.66 µM with KMM-1 cells; 2.72 µM with MIA PaCa-2 cells; 3.66 µM in the experiment with ASPC-1 cells; 3.85 µM in the experiment with OCI-LY3 cells; 1.88 µM with DOHH-2 cells. Besides, the IC50 with A498 cells amounted to 11.3 µM; in the experiment with MDA-MB-231 cells, 4.71 µM; in the experiment on H1975 (EGFR mut) cells (NSCLC), 6.41 µM; in the experiment on AN3CA cells, 1.86 µM; in the experiment on KMS-34 cells, 3.26 µM; in the experiment on L363 cells it was 3.89 µM. The IC50 was 5.12 µM in the experiment on MDA-MB-468 cells; 3.75 µM with A2780 cells; 6.35 µM with HCC70 cells; 2.28 µM with MOLP-8 cells; 1.27 µM in the experiment with RPMI-8226 cells.

`COc1ccc2c3c([nH]c2c1)C(CC(CC1=NCCc2c1[nH]c1cc(OC)ccc21)c1ccc(F)cc1)=NCC3` [compound 21]: the IC50 in the experiment on HEC-1a cells came out at 11.7 µM; in the experiment on FaDu cells, 6.26 µM; with H1650 (EGFR mut) cells (NSCLC), 8.22 µM; in the experiment on A2780CP cells, 9.87 µM; in the experiment with BxPC-3 cells, 3.58 µM; with JIM1 cells it was 5.55 µM. Moreover, the IC50 in the experiment on SiHA cells worked out at 11.5 µM; with KMM-1 cells it was 6.41 µM; with MIA PaCa-2 cells, 4.41 µM; in the experiment with ASPC-1 cells, 5.11 µM; in the experiment with OCI-LY3 cells, 4.94 µM; with DOHH-2 cells, 3.61 µM. In addition, the IC50 with A498 cells amounted to 11.7 µM; with MDA-MB-231 cells, 5.95 µM; in the experiment with H1975 (EGFR mut) cells (NSCLC) it was 11.4 µM; with AN3CA cells, 3.93 µM; in the experiment on KMS-34 cells it was 3.82 µM; in the experiment on L363 cells it was 5.15 µM. The IC50 in the experiment with MDA-MB-468 cells worked out at 6.74 µM; with A2780 cells, 7.51 µM; with HCC70 cells it was 10.9 µM; with MOLP-8 cells it was 3.69 µM; in the experiment with RPMI-8226 cells it was 3.56 µM.

On to `COc1ccc2c3c([nH]c2c1)C(CC(CC1=NCCc2c1[nH]c1cc(OC)ccc21)c1cc(F)cc(F)c1)=NCC3` [compound 22], for which the IC50 with HEC-1a cells was determined as 11.8 µM; in the experiment with FaDu cells, 11.1 µM; in the experiment on H1650 (EGFR mut) cells (NSCLC) it was 11.1 µM; in the experiment with A2780CP cells it was 9.3 µM; in the experiment with BxPC-3 cells, 5.37 µM; in the experiment with JIM1 cells, 7.35 µM. The IC50 was determined as 11.7 µM in the experiment on SiHA cells; 6.21 µM with KMM-1 cells; 5.93 µM in the experiment on MIA PaCa-2 cells; 8.61 µM with ASPC-1 cells; 9.73 µM in the experiment on OCI-LY3 cells; 4.26 µM in the experiment with DOHH-2 cells. The IC50 with A498 cells turned out to be 21.6 µM; in the experiment with MDA-MB-231 cells, 7.12 µM; in the experiment on H1975 (EGFR mut) cells (NSCLC), 11.5 µM; with AN3CA cells, 4.15 µM; in the experiment on KMS-34 cells, 3.9 µM; in the experiment on L363 cells, 6.12 µM. In addition, the IC50 stood at 11.5 µM with MDA-MB-468 cells; 9.16 µM with A2780 cells; 13.2 µM with HCC70 cells; 3.83 µM with MOLP-8 cells; 2.06 µM in the experiment on RPMI-8226 cells.

With `COc1ccc2c3c([nH]c2c1)C(CC(CC1=NCCc2c1[nH]c1cc(OC)ccc21)c1cc(F)c(F)cc1F)=NCC3` [compound 23], the half-inhibitory concentration (IC50) is 12.5 µM with HEC-1a cells; 6.14 µM in the experiment on FaDu cells; 5.89 µM in the experiment with H1650 (EGFR mut) cells (NSCLC); 6.49 µM with A2780CP cells; 4.97 µM with BxPC-3 cells; 6.32 µM in the experiment with JIM1 cells. Moreover, the half-maximal inhibitory concentration (IC50) was found to be 11.7 µM with SiHA cells; 3.98 µM in the experiment with KMM-1 cells; 5.64 µM with MIA PaCa-2 cells; 9.26 µM in the experiment on ASPC-1 cells; 5.45 µM in the experiment with OCI-LY3 cells; 3.73 µM in the experiment on DOHH-2 cells. The IC50 in the experiment with A498 cells was 21.4 µM; in the experiment on MDA-MB-231 cells it was 5.94 µM; with H1975 (EGFR mut) cells (NSCLC), 8.23 µM; in the experiment with AN3CA cells, 2.38 µM; in the experiment with KMS-34 cells, 3.47 µM; in the experiment on L363 cells, 4.72 µM. The IC50 is 6.54 µM in the experiment on MDA-MB-468 cells; 5.07 µM in the experiment on A2780 cells; 10.9 µM in the experiment on HCC70 cells; 3.19 µM in the experiment on MOLP-8 cells; 1.28 µM with RPMI-8226 cells.

For the compound `COc1ccc2c3c([nH]c2c1)C(CC(CC1=NCCc2c1[nH]c1cc(OC)ccc21)c1c(F)c(F)c(F)c(F)c1F)=NCC3` [compound 24], the IC50 with HEC-1a cells (Homo sapiens) stood at 48.2 µM; in the experiment on FaDu cells (Homo sapiens) it was 11.7 µM; with H1650 (EGFR mut) cells (Homo sapiens, NCI-H1650, NSCLC), 12.5 µM; with A2780CP cells (Homo sapiens, A2780C/P), 17.8 µM; in the experiment with BxPC-3 cells (Homo sapiens) it was 10.8 µM; with JIM1 cells (Homo sapiens), 56.1 µM. The IC50 with SiHA cells (Homo sapiens) stood at 58.9 µM; in the experiment on KMM-1 cells (Homo sapiens) it was 11.3 µM; in the experiment with MIA PaCa-2 cells (Homo sapiens), 13 µM; with ASPC-1 cells (Homo sapiens, ASPC1), 32.7 µM; with OCI-LY3 cells (Homo sapiens), 11.4 µM; in the experiment with DOHH-2 cells (Homo sapiens), 5.58 µM. Besides, the IC50 in the experiment with A498 cells (Homo sapiens) came out at 83.8 µM; in the experiment with MDA-MB-231 cells (Homo sapiens) it was 20.7 µM; with H1975 (EGFR mut) cells (Homo sapiens, NCI-H1975, NSCLC), 11.7 µM; in the experiment on AN3CA cells (Homo sapiens, AN3-CA), 11.2 µM; in the experiment on KMS-34 cells (Homo sapiens), 7.84 µM; with L363 cells (Homo sapiens, L-363) it was 13.2 µM. Also, the IC50 is 16.6 µM with MDA-MB-468 cells (Homo sapiens); 10.6 µM with A2780 cells (Homo sapiens); 25.7 µM in the experiment on HCC70 cells (Homo sapiens); 10.6 µM in the experiment with MOLP-8 cells (Homo sapiens); 5.05 µM in the experiment with RPMI-8226 cells (Homo sapiens).

In the case of `COc1ccc2c3c([nH]c2c1)C(CC(CC1=NCCc2c1[nH]c1cc(OC)ccc21)c1ccc(Cl)cc1)=NCC3` [compound 27], the IC50 stood at 11.7 µM in the experiment on HEC-1a cells; 11.2 µM in the experiment on FaDu cells; 11.3 µM with H1650 (EGFR mut) cells (NSCLC); 11.1 µM in the experiment on A2780CP cells; 4.61 µM in the experiment with BxPC-3 cells; 11.4 µM in the experiment with JIM1 cells. Moreover, the half-inhibitory concentration (IC50) in the experiment with SiHA cells worked out at 11.6 µM; in the experiment on KMM-1 cells, 7.18 µM; in the experiment with MIA PaCa-2 cells, 5.83 µM; in the experiment with ASPC-1 cells, 7.34 µM; with OCI-LY3 cells, 9.27 µM; in the experiment with DOHH-2 cells, 2.52 µM. Besides, the 50% inhibitory concentration (IC50) was 11.7 µM in the experiment with A498 cells; 7.39 µM in the experiment with MDA-MB-231 cells; 11.5 µM with H1975 (EGFR mut) cells (NSCLC); 4.36 µM in the experiment on AN3CA cells; 4.44 µM in the experiment with KMS-34 cells; 7.83 µM in the experiment with L363 cells. The IC50 with MDA-MB-468 cells came out at 10.8 µM; in the experiment with A2780 cells, 8.09 µM; in the experiment with HCC70 cells, 11.4 µM; in the experiment with MOLP-8 cells, 3.97 µM; with RPMI-8226 cells, 3.21 µM.
